In US20030004172A1, “Fused pyrimidinone matrix metalloproteinase inhibitors” (priority 2001, published 2003):

molecular target: MMP-13CD (catalytic domain of collagenase-3) (Homo sapiens, UniProt P45452); assay: Thiopeptolide substrate hydrolysis inhibition assay, MMP-13CD; assay type: biochemical; conditions: Table I; thiopeptolide substrate, HEPES pH 7.0, 22° C.; read-out: MMP-13CD IC50
Description: Thiopeptolide substrates show virtually no decomposition or hydrolysis at or below neutral pH in the absence of a matrix metalloproteinase enzyme.

Structure (SMILES) | IC50 [nM]
Cn1c(=O)n(Cc2ccccc2)c(=O)c2cc(C(=O)NCCc3ccc(Cl)cc3)sc21 [Example 322, 3-Benzyl-1-methyl-2,4-dioxo-1,2,3,4-tetrahydro-thieno[2,3-d]pyrimidine-6-carboxylic acid[2-(4-chloro-phenyl)-ethyl]-amide] | > 100000
COc1cccc(COC(=O)c2cc3c(=O)n(Cc4ccccc4)c(=O)n(C)c3s2)c1 [Example 192, 3-Benzyl-1-methyl-2,4-dioxo-1,2,3,4-tetrahydro-thieno[2,3-d]pyrimidine-6-carboxylic acid 3-methoxy-benzyl ester] | 3.4
Cn1c(=O)n(Cc2ccccc2)c(=O)c2cc(C(=O)NC3CCc4ccccc43)sc21 (stereo not drawn) [Example 353, 3-Benzyl-1-methyl-2,4-dioxo-1,2,3,4-tetrahydro-thieno[2,3-d]pyrimidine-6-carboxylic acid indan-1-ylamide] | > 100000
Cn1c(=O)n(Cc2ccccc2)c(=O)c2cc(C(=O)NCc3cccnc3)sc21 [Example 339, 3-Benzyl-1-methyl-2,4-dioxo-1,2,3,4-tetrahydro-thieno[2,3-d]pyrimidine-6-carboxylic acid (pyridin-3-ylmethyl)-amide] | 380
Cn1c(=O)n(Cc2ccccc2)c(=O)c2cc(C(=O)NC3CC3)sc21 [Example 215, 3-Benzyl-1-methyl-2,4-dioxo-1,2,3,4-tetrahydro-thieno[2,3-d]pyrimidine-6-carboxylic acid cyclopropylamide] | 24000
CC(CO)Cn1c(=O)c2cc(C(=O)OCc3ccccc3)sc2n(C)c1=O (stereo not drawn) [Example 134, 3-(3-Hydroxy-2-methyl-propyl)-1-methyl-2,4-dioxo-1,2,3,4-tetrahydro-thieno[2,3-d]pyrimidine-6-carboxylic acid benzyl ester] | 1500
CCOC(=O)c1ccc(Cn2c(=O)c3cc(C(=O)NCc4cccc(OC)c4)sc3n(C)c2=O)o1 [Example 65a, 5-[6-(3-Methoxy-benzylcarbamoyl)-1-methyl-2,4-dioxo-1,4-dihydro-2H-thieno[2,3-d]pyrimidin-3-ylmethyl]-furan-2-carboxylic acid ethyl ester] | 1050
COc1ccc(CNC(=O)c2cc3c(=O)n(CCCCCC#N)c(=O)n(C)c3s2)cc1 [Example 257] | 1500
Cn1c(=O)n(Cc2ccccc2)c(=O)c2cc(C(=O)OCc3ccc4c(c3)OCO4)sc21 [Example 201, 3-Benzyl-1-methyl-2,4-dioxo-1,2,3,4-tetrahydro-thieno[2,3-d]pyrimidine-6-carboxylic acid 1,3-benzodioxol-5-ylmethyl ester] | 300
COc1ccc(CNC(=O)c2cc3c(=O)n(CCOc4ccc(F)cc4)c(=O)n(C)c3s2)cc1 [Example 234, 3-[2-(4-Fluoro-phenoxy)-ethyl]-1-methyl-2,4-dioxo-1,2,3,4-tetrahydro-thieno[2,3-d]pyrimidine-6-carboxylic acid 4-methoxy-benzylamide] | 150
COc1ccc(CNC(=O)c2cc3c(=O)n(CCN)c(=O)n(C)c3s2)cc1 [Example 235, 3-(2-aminoethyl)-1-methyl-2,4-dioxo-1,2,3,4-tetrahydro-thieno[2,3-d]pyrimidine-6-carboxylic acid 4-methoxy-benzylamide] | 18000
COc1cc(Cn2c(=O)c3cc(C(=O)OCc4ccccc4)sc3n(C)c2=O)cc(OC)c1 [Example 315, 3-(3,5-Dimethoxy-benzyl)-1-methyl-2,4-dioxo-1,2,3,4-tetrahydro-thieno[2,3-d]pyrimidine-6-carboxylic acid benzyl ester] | 20.5

Continued, values first:

IC50 [nM] | Structure (SMILES)
11 | Cn1c(=O)n(Cc2ccc(C(=O)O)cc2)c(=O)c2cc(C(=O)NCc3ccc(Br)cc3)sc21 [Example 55, 4-[6-(4-Bromo-benzylcarbamoyl)-1-methyl-2,4-dioxo-1,4-dihydro-2H-thieno[2,3-d]pyrimidin-3-ylmethyl]-benzoic acid]
3200 | Cn1c(=O)n(Cc2ccc(C(F)(F)F)cc2C(F)(F)F)c(=O)c2cc(C(=O)OCc3ccccc3)sc21 [Example 111, 3-(2,4-Bis-trifluoromethyl-benzyl)-1-methyl-2,4-dioxo-1.2.3.4-tetrahydro-thieno[2,3-d]pyrimidine-6-carboxylic acid benzyl ester]
> 100000 | Cn1c(=O)n(Cc2ccccc2)c(=O)c2cc(C(=O)OCCN3CCOCC3)sc21 [Example 174, 3-Benzyl-1-methyl-2,4-dioxo-1,2,3,4-tetrahydro-thieno[2,3-d]pyrimidine-6-carboxylic acid 2-morpholin-4-yl-ethyl ester]
510 | Cn1c(=O)n(CC2CO2)c(=O)c2cc(C(=O)OCc3ccccc3)sc21 (stereo not drawn) [Example 119, 1-Methyl-3-oxiranylmethyl-2,4-dioxo-1,2,3,4-tetrahydro-thieno[2,3-d]pyrimidine-6-carboxylic acid benzyl ester]
> 100000 | CC(NC(=O)c1cc2c(=O)n(Cc3ccccc3)c(=O)n(C)c2s1)c1ccccc1 (stereo not drawn) [Example 358, 3-Benzyl-1-methyl-2,4-dioxo-1,2,3,4-tetrahydro-thieno[2,3-d]pyrimidine-6-carboxylic acid (1-phenyl-ethyl)-amide]
> 100000 | Cn1c(=O)n(Cc2ccccc2)c(=O)c2cc(C(=O)OCc3ccc(OCc4ccccc4)cc3)sc21 [Example 187, 3-Benzyl-1-methyl-2,4-dioxo-1,2,3,4-tetrahydro-thieno[2,3-d]pyrimidine-6-carboxylic acid 4-benzyloxy-benzyl ester]
1700 | COc1ccc(OC)c(C(=O)Cn2c(=O)c3cc(C(=O)OCc4ccccc4)sc3n(C)c2=O)c1 [Example 108, 3-[2-(2,5-Dimethoxy-phenyl)-2-oxo-ethyl]-1-methyl-2,4-dioxo-1,2,3,4-tetrahydro-thieno[2,3-d]pyrimidine-6-carboxylic acid benzyl ester]
34 | Cn1c(=O)n(Cc2ccc(S(C)(=O)=O)cc2)c(=O)c2cc(C(=O)OCc3ccccc3)sc21 [Example 101, 3-(4-Methanesulfonyl-benzyl)-1-methyl-2,4-dioxo-1,2,3,4-tetrahydro-thieno[2,3-d]pyrimidine-6-carboxylic acid benzyl ester]
680 | COCN1C(=O)c2ccc(Cn3c(=O)c4cc(C(=O)NCc5ccc(OC)cc5)sc4n(C)c3=O)cc2S1(=O)=O [Example 229, 3-(2-Methoxymethyl-1,1,3-trioxo-2,3-dihydro-1H-1l^6l-1,2-benzisothiazol-6-ylmethyl)-1-methyl-2,4-dioxo-1,2,3,4-tetrahydro-thieno[2,3-d]pyrimidine-6-carboxylic acid 4-methoxy-benzylamide]
5600 | Cn1c(=O)n(Cc2ccc(C(=O)O)cc2)c(=O)c2cc(C(=O)NCc3cc(C(F)(F)F)cc(C(F)(F)F)c3)sc21 [Example 57, 4-[6-(3,5-Bis-trifluoromethyl-benzylcarbamoyl)-1-methyl-2,4-dioxo-1,4-dihydro-2H-thieno[2,3-d]pyrimidin-3-ylmethyl]-benzoic acid]
87.5 | COc1ccc(COC(=O)c2cc3c(=O)n(Cc4ccccc4)c(=O)[nH]c3s2)cc1 [Example 50, 3-Benzyl-2,4-dioxo-1,2,3,4-tetrahydro-thieno[2,3-d]pyrimidine-6-carboxylic acid 4-methoxy-benzyl ester]

same assay, conditions: Table II; micromolar concentration; HEPES pH 7.0; read-out: IC50 MMP-13CD

IC50 [nM] | Structure (SMILES)
6.5 | C=Cc1ccc(Cn2c(=O)c3cc(C(=O)OCc4ccccc4)sc3n(C)c2=O)cc1 [Example 20, 1-Methyl-2,4-dioxo-3-(4-vinyl-benzyl)-1,2,3,4-tetrahydro-thieno[2,3-d]pyrimidine-6-carboxylic acid benzyl ester]
